Data as given in ChEMBL document CHEMBL3826908, “Bortezomib inhibits bacterial and fungal β-carbonic anhydrases” (Bioorg Med Chem, 2016).

Key:
[1] = Inhibition of Candida glabrata beta-carbonic anhydrase preincubated for 15 mins by stopped-flow CO2 hydration assay; design: species or system Nakaseomyces glabratus
[2] = Inhibition of Cryptococcus neoformans beta-carbonic anhydrase preincubated for 15 mins by stopped-flow CO2 hydration assay
[3] = Inhibition of Drosophila melanogaster beta-carbonic anhydrase preincubated for 15 mins by stopped-flow CO2 hydration assay
[4] = Inhibition of Malassezia globosa beta-carbonic anhydrase preincubated for 15 mins by stopped-flow CO2 hydration assay
[5] = Inhibition of Flaveria bidentis beta-carbonic anhydrase preincubated for 15 mins by stopped-flow CO2 hydration assay
[6] = Inhibition of Mycobacterium tuberculosis beta-carbonic anhydrase Rv3588 preincubated for 15 mins by stopped-flow CO2 hydration assay
[7] = Inhibition of Mycobacterium tuberculosis beta-carbonic anhydrase Rv3273 preincubated for 15 mins by stopped-flow CO2 hydration assay
[8] = biological target: T1, Beta-carbonic anhydrase 1 (Mycobacterium tuberculosis, UniProt P9WPJ7); assay: Inhibition of Mycobacterium tuberculosis beta-carbonic anhydrase Rv1284 preincubated for 15 mins by stopped-flow CO2 hydration assay
T1 sequence (P9WPJ7 whole entry): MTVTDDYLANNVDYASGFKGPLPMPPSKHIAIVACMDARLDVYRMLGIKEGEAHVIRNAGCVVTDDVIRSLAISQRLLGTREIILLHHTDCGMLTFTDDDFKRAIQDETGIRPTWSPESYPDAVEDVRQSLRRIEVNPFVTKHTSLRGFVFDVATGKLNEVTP

Carbonic anhydrase 2 = Carbonic anhydrase 2 (Homo sapiens, UniProt P00918)
Carbonic anhydrase 1 = Carbonic anhydrase 1 (Homo sapiens, UniProt P00915)
[9] = Inhibition of Candida albicans beta-carbonic anhydrase preincubated for 15 mins by stopped-flow CO2 hydration assay

Carbonic anhydrase 1, sequence (P00915 whole entry): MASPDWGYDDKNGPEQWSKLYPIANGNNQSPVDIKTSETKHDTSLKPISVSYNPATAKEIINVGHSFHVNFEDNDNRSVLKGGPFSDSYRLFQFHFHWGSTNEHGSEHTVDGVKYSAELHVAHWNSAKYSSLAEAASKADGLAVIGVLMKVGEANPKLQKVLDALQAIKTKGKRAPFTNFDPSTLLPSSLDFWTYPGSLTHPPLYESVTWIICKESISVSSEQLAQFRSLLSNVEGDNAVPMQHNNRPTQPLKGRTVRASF

SMILES	Ki [1] [µM]	Ki [2] [µM]	Ki [3] [µM]	Ki [4] [µM]	Ki [5] [µM]	Ki [6] [µM]	Ki [7] [µM]	Ki [8] [µM]	Ki (Carbonic anhydrase 2) [µM]	Ki (Carbonic anhydrase 1) [µM]	Ki [9] [µM]
CC(=O)Nc1nnc(S(N)(=O)=O)s1 [ACETAZOLAMIDE]	0.011	0.01	0.049	74	[…]	0.01	–	–	–	–	–
CC(C)C[C@H](NC(=O)[C@H](Cc1ccccc1)NC(=O)c1cnccn1)B(O)O [BORTEZOMIB]	5.73	4.7	11.3	3.24	8.45	4.2	6.5	7.3	1.16	1.29	1.12
OB(O)c1ccccc1 [PHENYLBORONIC ACID]	100	> 100	> 100	89	8	48	67	58	> 100	> 100	> 100
